IC50 data for 21 molecules are collected here from patent US12522594B2, “2-heteroaryl-3-oxo-2,3-dihydropyridazine-4-carboxamides for the treatment of cancer” (Deutsches Krebsforschungszentrum, priority 2017, dated 2026).

A word on the IC50: it is the point on the concentration scale where inhibition reaches its midpoint.

Assay [1] concerns the target T1, AHR (Homo sapiens, UniProt P35869).
T1 sequence (P35869 11-848): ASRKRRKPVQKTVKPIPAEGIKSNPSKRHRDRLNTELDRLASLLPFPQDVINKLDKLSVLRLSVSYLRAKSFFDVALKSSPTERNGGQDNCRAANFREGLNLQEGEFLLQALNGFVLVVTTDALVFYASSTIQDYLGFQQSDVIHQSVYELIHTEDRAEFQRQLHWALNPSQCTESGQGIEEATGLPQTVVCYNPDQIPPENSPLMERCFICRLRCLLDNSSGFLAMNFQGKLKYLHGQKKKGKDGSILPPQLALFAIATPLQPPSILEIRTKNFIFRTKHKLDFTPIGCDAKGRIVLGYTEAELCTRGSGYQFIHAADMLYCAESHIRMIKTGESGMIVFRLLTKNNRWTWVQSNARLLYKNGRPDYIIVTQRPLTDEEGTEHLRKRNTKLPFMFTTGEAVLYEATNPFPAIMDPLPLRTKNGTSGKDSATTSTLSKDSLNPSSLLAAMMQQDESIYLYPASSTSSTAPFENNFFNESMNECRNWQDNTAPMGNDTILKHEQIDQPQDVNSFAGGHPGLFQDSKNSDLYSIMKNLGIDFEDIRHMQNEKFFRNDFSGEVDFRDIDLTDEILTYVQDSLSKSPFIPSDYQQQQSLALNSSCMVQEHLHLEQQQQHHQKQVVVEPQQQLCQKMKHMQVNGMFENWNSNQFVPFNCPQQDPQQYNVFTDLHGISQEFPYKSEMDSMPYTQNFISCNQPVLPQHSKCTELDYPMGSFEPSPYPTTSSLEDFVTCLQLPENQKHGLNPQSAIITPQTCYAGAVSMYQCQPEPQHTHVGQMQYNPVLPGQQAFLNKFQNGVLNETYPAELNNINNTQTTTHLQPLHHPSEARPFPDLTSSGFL
The assay is described as follows: In vitro assay 2: agonism in human cell line (transactivation assay, U87 cells, DRE firefly luciferase reporter). Particulars: no kynurenic acid, 20 hours, read-out: Assay 2: AHR-luc Hum Agonism IC50. More on the design: host or cells: U87 glioblastoma cells, stably transfected with DRE firefly luciferase and renilla reporter constructs. It is filed as cell-based. Summed up: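 Agonist readout: DRE firefly luciferase, with constitutive renilla reporter, in stably transfected U87 cells expressing AHR endogenously. Normalization used positive control (300 uM kynurenic acid) and negative control.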
A general note: A reporter such as luciferase makes a cellular process visible.

The target of assay [2] is T1, AHR. Briefly: In vitro assay 1: antagonism in human cell line (transactivation assay, U87 cells prestimulated with kynurenic acid, DRE firefly luciferase reporter). In kind it is cell-based. More on the design: host or cells: U87 glioblastoma cells, stably transfected with DRE firefly luciferase and renilla reporter constructs. The conditions noted are these: 150 uM kynurenic acid, 20 hours, read-out: Assay 1: AHR-luc Hum Antagonism IC50. Summed up: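 Antagonism measured after kynurenic acid prestimulation in U87 cells that express AHR endogenously and stably harbor a firefly luciferase gene under DRE control plus a constitutive renilla construct. Positive and negative controls served for normalization.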

`Cn1cc(-n2nc(-c3ccc(Cl)cc3)cc(C(=O)N[C@H]3CCCC[C@H]3O)c2=O)cn1` [Example 48, 6-(4-Chlorophenyl)-N-[(1S,2R)-2-hydroxycyclohexyl]-2-(1-methyl-1H-pyrazol-4-yl)-3-oxo-2,3-dihydropyridazine-4-carboxamide]: the IC50 was over 20000 nM in assay [1] and 2.49 nM in assay [2].

For `O=C(N[C@H]1COC[C@H]1O)c1cc(-c2ccc(C(F)F)nc2)nn(-c2cccnc2)c1=O` (relative stereo) [Example 182, 6-[6-(Difluoromethyl)pyridin-3-yl]-N-[(cis)-4-hydroxytetrahydrofuran-3-yl]-3-oxo-2-(pyridin-3-yl)-2,3-dihydropyridazine-4-carboxamide], the IC50 is over 20000 nM in assay [1] and 6110 nM in assay [2].

On to `COC(=O)[C@@H](CO)NC(=O)c1cc(-c2ccc(Cl)cc2)nn(-c2cccnc2)c1=O` [Example 274, Methyl N-{[6-(4-chlorophenyl)-3-oxo-2-(pyridin-3-yl)-2,3-dihydropyridazine-4-yl]carbonyl}-D-serinate], for which the IC50 was over 20000 nM in assay [1] and 111 nM in assay [2].

For the molecule `C[C@@H](CO)NC(=O)c1cc(-c2ccc(C#N)cc2)nn(-c2cccnc2)c1=O` [Example 179, 6-(4-Cyanophenyl)-N-[(2S)-1-hydroxypropan-2-yl]-3-oxo-2-(pyridin-3-yl)-2,3-dihydropyridazine-4-carboxamide], the 50% inhibitory concentration (IC50) in assay [1] is over 20000 nM; in assay [2] it was 736 nM.

In the case of `CC(C)(O)CNC(=O)c1cc(-c2ccc(C(F)(F)F)cc2)nn(-c2cnn(C(F)F)c2)c1=O` [Example 262, 2-[1-(Difluoromethyl)-1H-pyrazol-4-yl]-N-(2-hydroxy-2-methylpropyl)-3-oxo-6-[4-(trifluoromethyl)phenyl]-2,3-dihydropyridazine-4-carboxamide], the IC50 is over 20000 nM in assay [1] and 41.2 nM in assay [2].

Take `CC(C)[C@@H](CO)NC(=O)c1cc(-c2ccc(Cl)cc2)nn(-c2cncc(F)c2)c1=O` [Example 83, 6-(4-Chlorophenyl)-2-(5-fluoropyridin-3-yl)-N-[(2S)-1-hydroxy-3-methylbutan-2-yl]-3-oxo-2,3-dihydropyridazine-4-carboxamide]: the values for the IC50 in assay [1] and in assay [2] were over 20000 nM and 4.61 nM, respectively.

Take `O=C(N[C@H]1COC[C@@H]1O)c1cc(-c2ccc(OC(F)(F)F)cc2)nn(-c2cccnc2)c1=O` (single isomer, unassigned; enantiomer 1) [Example 161, N-[(trans)-4-Hydroxytetrahydrofuran-3-yl]-3-oxo-2-(pyridin-3-yl)-6-[4-(trifluoromethoxy)phenyl]-2,3-dihydropyridazine-4-carboxamide, Enantiomer 1]: the half-inhibitory concentration (IC50) is over 20000 nM in assay [1] and 103 nM in assay [2].

In the case of `C[C@@H](CO)NC(=O)c1cc(-c2ccc(C(F)(F)F)cn2)nn(-c2cccnc2)c1=O` [Example 345, N-[(2S)-1-Hydroxypropan-2-yl]-3-oxo-2-(pyridin-3-yl)-6-[5-(trifluoromethyl)pyridin-2-yl]-2,3-dihydropyridazine-4-carboxamide], the IC50 in assay [1] was over 20000 nM; in assay [2], 55.3 nM.

Take `O=C(NC(CO)CO)c1cc(-c2ccc(C(F)(F)F)cc2)nn(-c2cccnc2)c1=O` [Example 116, N-(1,3-Dihydroxypropan-2-yl)-3-oxo-2-(pyridin-3-yl)-6-[4-(trifluoromethyl)phenyl]-2,3-dihydropyridazine-4-carboxamide]: the values for the IC50 in assay [1] and in assay [2] were over 20000 nM and 115 nM, respectively.

With `CC(NC(=O)c1cc(-c2ccc(Cl)cc2)nn(-c2cccnc2)c1=O)C(O)C(F)(F)F` (single isomer, unassigned) [Example 299, 6-(4-Chlorophenyl)-3-oxo-2-(pyridin-3-yl)-N-(4,4,4-trifluoro-3-hydroxybutan-2-yl)-2,3-dihydropyridazine-4-carboxamide], the IC50 in assay [1] was over 20000 nM; in assay [2], 13.3 nM.

In the case of `CC(C)(O)CNC(=O)c1cc(-c2ccc(C(F)(F)F)cc2)nn(-c2cn[nH]c2)c1=O` [Example 266, N-(2-Hydroxy-2-methylpropyl)-3-oxo-2-(1H-pyrazol-4-yl)-6-[4-(trifluoromethyl)phenyl]-2,3-dihydropyridazine-4-carboxamide], the figures for the IC50 in assay [1] and in assay [2] were over 20000 nM and 56.8 nM, respectively.

In the case of `O=C(N[C@H]1CCC[C@@H]1O)c1cc(-c2ccc(Cl)cc2)nn(-c2ccnnc2)c1=O` [Example 174, 3-(4-Chlorophenyl)-N-[(1S,2S)-2-hydroxycyclopentyl]-6-oxo-6H-1,4′-bipyridazine-5-carboxamide], the IC50 was over 20000 nM in assay [1] and 61.5 nM in assay [2].

Regarding `O=C(N[C@H]1COC[C@H]1O)c1cc(-c2ccc(Cl)cc2)nn(-c2ccnnc2)c1=O` (relative stereo) [Example 181, 3-(4-Chlorophenyl)-N-[(cis)-4-hydroxytetrahydrofuran-3-yl]-6-oxo-6H-1,4′-bipyridazine-5-carboxamide], the IC50 in assay [1] is over 20000 nM; in assay [2], 911 nM.

Turning to `Cn1cc(-n2nc(-c3ccc(C(F)(F)F)cc3)cc(C(=O)NC[C@H](O)C(F)F)c2=O)cn1` [Example 219, N-[(2S)-3,3-Difluoro-2-hydroxypropyl]-2-(1-methyl-1H-pyrazol-4-yl)-3-oxo-6-[4-(trifluoromethyl)phenyl]-2,3-dihydropyridazine-4-carboxamide], the concentration for half-maximal inhibition (IC50) in assay [1] was over 20000 nM; in assay [2], 3.21 nM.

For `O=C(NC[C@H](O)CF)c1cc(-c2ccc(C(F)(F)F)cc2)nn(-c2cccnc2)c1=O` [Example 255, N-[(2S)-3-Fluoro-2-hydroxypropyl]-3-oxo-2-(pyridin-3-yl)-6-[4-(trifluoromethyl)phenyl]-2,3-dihydropyridazine-4-carboxamide], the IC50 in assay [1] is over 20000 nM; in assay [2] it was 25.8 nM.

On to `O=C(N[C@H](CO)C(F)(F)F)c1cc(-c2ccc(Cl)cc2)nn(-c2cnn(C3CCC3)c2)c1=O` [Example 41, 6-(4-Chlorophenyl)-2-(1-cyclobutyl-1H-pyrazol-4-yl)-3-oxo-N-[(2R)-1,1,1-trifluoro-3-hydroxypropan-2-yl]-2,3-dihydropyridazine-4-carboxamide], for which the IC50 in assay [1] was over 20000 nM; in assay [2], 1650 nM.

For the molecule `C[C@H](NC(=O)c1cc(-c2ccc(OC(F)(F)F)cc2)nn(-c2cnsc2)c1=O)C(C)(C)O` [Example 312, N-[(2S)-3-Hydroxy-3-methylbutan-2-yl]-3-oxo-2-(1,2-thiazol-4-yl)-6-[4-(trifluoromethoxy)phenyl]-2,3-dihydropyridazine-4-carboxamide], the IC50 in assay [1] was over 20000 nM; in assay [2] it was 1.85 nM.

As to `Cc1cncc(-n2nc(-c3ccc(Cl)cc3)cc(C(=O)N[C@@H](C)CO)c2=O)c1` [Example 304, 6-(4-Chlorophenyl)-N-[(2S)-1-hydroxypropan-2-yl]-2-(5-methylpyridin-3-yl)-3-oxo-2,3-dihydropyridazine-4-carboxamide], the values for the IC50 in assay [1] and in assay [2] were over 20000 nM and 349 nM, respectively.

For the molecule `Cn1cc(-n2nc(-c3ccc(CF)cc3)cc(C(=O)N[C@H](CO)C(F)(F)F)c2=O)cn1` [Example 275, 6-[4-(Fluoromethyl)phenyl]-2-(1-methyl-1H-pyrazol-4-yl)-3-oxo-N-[(2R)-1,1,1-trifluoro-3-hydroxypropan-2-yl]-2,3-dihydropyridazine-4-carboxamide], the IC50 in assay [1] was over 20000 nM; in assay [2], 130 nM.

On to `O=C(NC[C@H](O)CO)c1cc(-c2ccc(Cl)cc2)nn(-c2cncc(F)c2)c1=O` [Example 99, 6-(4-Chlorophenyl)-N-[(2S)-2,3-dihydroxypropyl]-2-(5-fluoropyridin-3-yl)-3-oxo-2,3-dihydropyridazine-4-carboxamide], for which the IC50 in assay [1] was over 20000 nM; in assay [2], 129 nM.

For the molecule `C[C@H](NC(=O)c1cc(-c2ccc(Cl)cc2)nn(-c2cnsc2)c1=O)C(C)(C)O` [Example 209, 6-(4-Chlorophenyl)-N-[(2S)-3-hydroxy-3-methylbutan-2-yl]-3-oxo-2-(1,2-thiazol-4-yl)-2,3-dihydropyridazine-4-carboxamide], the results for the IC50 in assay [1] and in assay [2] were over 20000 nM and 1.24 nM, respectively.
